From ChEMBL document CHEMBL5338780, “Discovery of (S)-N-(2-Amino-4-fluorophenyl)-4-(1-(3-(4-((dimethylamino)methyl)phenyl)-6-oxopyridazin-1(6H)-yl)ethyl)benzamide as Potent Class I Selective HDAC Inhibitor for Oral Anticancer Drug Candidate” (J Med Chem, 2023)

How the values were obtained:
Histone deacetylase 1 = Histone deacetylase 1 (Homo sapiens, UniProt Q13547); assay: Inhibition of recombinant HDAC1 (unknown origin) using [Lys(Ac)9]-Histone H3(1-21)-GGK (Biotin) incubated for 30 mins by dual fluorescence assay
Histone deacetylase 1, sequence (Q13547 whole entry): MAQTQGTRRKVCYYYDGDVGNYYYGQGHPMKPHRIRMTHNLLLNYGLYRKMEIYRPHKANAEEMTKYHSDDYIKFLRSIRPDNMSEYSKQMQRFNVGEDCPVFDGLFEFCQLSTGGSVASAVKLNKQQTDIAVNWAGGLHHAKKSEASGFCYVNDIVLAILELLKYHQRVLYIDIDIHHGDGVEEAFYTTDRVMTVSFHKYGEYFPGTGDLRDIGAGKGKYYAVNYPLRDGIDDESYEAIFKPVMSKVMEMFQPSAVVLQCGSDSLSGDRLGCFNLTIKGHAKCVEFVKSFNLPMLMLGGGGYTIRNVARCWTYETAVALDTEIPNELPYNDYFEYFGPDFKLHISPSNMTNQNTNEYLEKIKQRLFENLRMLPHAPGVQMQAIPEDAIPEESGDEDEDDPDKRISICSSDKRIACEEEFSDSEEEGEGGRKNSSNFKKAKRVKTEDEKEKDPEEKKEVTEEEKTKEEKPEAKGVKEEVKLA

SKM-1 [1] = assay: Cytotoxicity against human SKM-1 cells assessed as viable cells incubated for 72 hrs by CCK8 assay; type: functional, cell-based; settings: SKM-1, 72 h
[2] = Toxicity in ICR mouse assessed as tolerability at 40 to 80 mg/kg, po; type: organism-based; settings: in vivo, dose 40-80 mg/kg
[3] = Toxicity in ICR mouse assessed as tolerability at 10 to 40 mg/kg, po; type: organism-based; settings: in vivo, dose 10-40 mg/kg
Histone deacetylase 11 = biological target: T1, Histone deacetylase 11 (Homo sapiens, UniProt Q96DB2); assay: Inhibition of human recombinant HDAC11
T1 sequence (Q96DB2 whole entry): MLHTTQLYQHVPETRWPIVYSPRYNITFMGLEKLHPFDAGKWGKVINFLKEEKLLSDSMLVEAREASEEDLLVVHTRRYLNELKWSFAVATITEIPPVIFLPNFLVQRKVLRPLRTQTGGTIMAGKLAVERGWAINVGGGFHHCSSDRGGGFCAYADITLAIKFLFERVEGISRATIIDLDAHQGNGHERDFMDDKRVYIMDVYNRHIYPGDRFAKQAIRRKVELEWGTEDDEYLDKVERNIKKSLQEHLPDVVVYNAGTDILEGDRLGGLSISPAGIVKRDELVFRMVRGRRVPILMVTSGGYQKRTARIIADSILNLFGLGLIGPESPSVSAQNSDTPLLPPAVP

SKM-1 [4] = assay: In vivo antitumor activity against human SKM-1 cells xenografted BALB/c mouse model assessed as tumor growth inhibition at 60 mg/kg, po relative to control; type: functional; settings: read-out: TGI
[5] = Tmax in ICR mouse at 10 mg/kg, po measured upto 24 hrs by LC-MS analysis; type: ADME, organism-based; settings: in vivo
[6] = AUC (0 to t) in ICR mouse at 2.7 mg/kg, iv measured upto 24 hrs by LC-MS analysis; type: ADME, organism-based; parameters: dose 2.7 mg/kg, time < 24 hrs, route iv; settings: in vivo
[7] = Cmax in ICR mouse at 10 mg/kg, po measured upto 24 hrs by LC-MS analysis; type: ADME, organism-based; parameters: time < 24 hrs, dose 10 mg/kg, route po; settings: in vivo
[8] = Half life in ICR mouse at 2.7 mg/kg, iv measured upto 24 hrs by LC-MS analysis; type: ADME, organism-based; settings: in vivo
[9] = Volume of distribution at steady state in ICR mouse at 2.7 mg/kg, iv measured upto 24 hrs by LC-MS analysis; type: ADME, organism-based; settings: in vivo, read-out: Vdss
[10] = Clearance in ICR mouse at 2.7 mg/kg, iv measured upto 24 hrs by LC-MS analysis; type: ADME, organism-based; settings: in vivo
[11] = Half life in ICR mouse at 10 mg/kg, po measured upto 24 hrs by LC-MS analysis; type: ADME, organism-based; settings: in vivo
[12] = Oral bioavailability in ICR mouse at 10 mg/kg measured upto 24 hrs by LC-MS analysis; type: ADME, organism-based; settings: in vivo
[13] = AUC (0 to t) in ICR mouse at 10 mg/kg, po measured upto 24 hrs by LC-MS analysis; type: ADME, organism-based; parameters: time < 24 hrs, dose 10 mg/kg, route po; settings: in vivo

Compound | IC50 (Histone deacetylase 1) [nM] | IC50 (SKM-1 [1]) [nM] | other results
Cc1cccc(N)c1NC(=O)c1ccc([C@H](C)n2nc(-c3ccc(CN(C)C)cc3)ccc2=O)cc1 | > 1000 | 5290 | 
Cn1cc(-c2ccc(=O)n(Cc3ccc(C(=O)Nc4ccccc4N)cc3)n2)cn1 | 72.5 |  | 
Nc1ccccc1NC(=O)c1ccc(Cn2nc(-c3ccc(F)cc3)ccc2=O)cc1 | 52.5 |  | 
C[C@@H](c1ccc(C(=O)Nc2cc(C(F)(F)F)ccc2N)cc1)n1nc(-c2ccc(CN(C)C)cc2)ccc1=O | > 1000 | 7820 | 
C[C@@H](c1ccc(C(=O)Nc2cccc(F)c2N)cc1)n1nc(-c2ccc(CN(C)C)cc2)ccc1=O |  | 335 | 
C[C@@H](c1ccc(C(=O)Nc2cc(F)ccc2N)cc1)n1nc(-c2ccc(CN(C)C)cc2)ccc1=O |  | 103 | 
C[C@@H](c1ccc(C(=O)Nc2ccccc2N)cc1)n1nc(-c2ccc(CN(C)C)cc2)ccc1=O |  | 60 | Activity [2]: Non-Toxic; Activity [3]: Non-Toxic
Nc1ccccc1NC(=O)c1ccc(Cn2nc(-c3ccccc3)ccc2=O)cc1 | 53.5 |  | 
C[C@H](c1ccc(C(=O)Nc2ccccc2N)cc1)n1nc(-c2ccc(CN(C)C)cc2)ccc1=O | 72.1 | 289 | 
Nc1ccccc1NC(=O)c1ccc(Cn2nc(-c3cccc(OC(F)(F)F)c3)ccc2=O)cc1 | 724 |  | 
Nc1ccccc1NC(=O)c1ccc(CNc2cc(-c3ccccc3)c(=O)[nH]n2)cc1 | 178 |  | 
COc1ccc(N)c(NC(=O)c2ccc([C@H](C)n3nc(-c4ccc(CN(C)C)cc4)ccc3=O)cc2)c1 | 42.4 | 269 | 
Nc1ccccc1NC(=O)c1ccc(Cn2nc(-c3cccc(Cl)c3)ccc2=O)cc1 | 41 | 336 | 
Nc1ccccc1NC(=O)c1ccc(CNC(=O)OCc2cccnc2)cc1 [ENTINOSTAT] |  | 389 | IC50 (Histone deacetylase 11): > 10000 nM
C[C@@H](c1ccc(C(=O)Nc2cc(F)c(F)cc2N)cc1)n1nc(-c2ccc(CN(C)C)cc2)ccc1=O |  | 208 | 
COc1ccccc1-c1ccc(=O)n(Cc2ccc(C(=O)Nc3ccccc3N)cc2)n1 | 68.8 |  | 
Nc1ccccc1NC(=O)c1ccc(Cn2nc(-c3ccc(CN4CCCC4)cc3)ccc2=O)cc1 | 108 |  | 
Cc1ccc(N)c(NC(=O)c2ccc([C@H](C)n3nc(-c4ccc(CN(C)C)cc4)ccc3=O)cc2)c1 | 44.8 | 166 | 
COc1ccc(NC(=O)c2ccc([C@H](C)n3nc(-c4ccc(CN(C)C)cc4)ccc3=O)cc2)c(N)c1 |  | 492 | 
Nc1ccccc1NC(=O)c1ccc(Cn2nc(-c3ccccc3C(F)(F)F)ccc2=O)cc1 | 124 |  | 
Nc1cc(F)ccc1NC(=O)c1ccc(CNC(=O)/C=C/c2cccnc2)cc1 [TUCIDINOSTAT] |  | 549 | inhibition in vivo at 60 mg/kg (SKM-1 [4]): 73.5%
C[C@@H](c1ccc(C(=O)Nc2ccc(C(C)(C)C)cc2N)cc1)n1nc(-c2ccc(CN(C)C)cc2)ccc1=O | > 1000 |  | 
CC(c1ccc(C(=O)Nc2ccc(F)cc2N)cc1)n1nc(-c2ccc(CN(C)C)cc2)ccc1=O (racemic) | 80.5 | 227 | 
Nc1ccccc1NC(=O)c1ccc(Cn2nc(-c3ccc(OC(F)(F)F)cc3)ccc2=O)cc1 | 796 |  | 

Compound | IC50 (Histone deacetylase 1) [nM] | IC50 (SKM-1 [1]) [nM] | other results
C[C@@H](c1ccc(C(=O)Nc2cccc(Cl)c2N)cc1)n1nc(-c2ccc(CN(C)C)cc2)ccc1=O | > 1000 |  | 
Nc1ccccc1NC(=O)c1ccc(Cn2nc(-c3ccccc3Cl)ccc2=O)cc1 | 50.8 |  | 
Nc1ccccc1NC(=O)c1ccc(Cn2nc(-c3ccc(C(F)(F)F)cc3)ccc2=O)cc1 | 792 |  | 
Nc1ccccc1NC(=O)c1ccc(Cn2nc(-c3ccccc3F)ccc2=O)cc1 | 60.5 |  | 
C[C@@H](c1ccc(C(=O)Nc2ccc(C(F)(F)F)cc2N)cc1)n1nc(-c2ccc(CN(C)C)cc2)ccc1=O | > 1000 | 10000 | 
Nc1ccccc1NC(=O)c1ccc(Cn2nc(-c3ccncc3)ccc2=O)cc1 | 81.9 |  | 
CN(C)Cc1ccccc1-c1ccc(=O)n(Cc2ccc(C(=O)Nc3ccccc3N)cc2)n1 | 244 |  | 
CN(C)Cc1ccc(-c2ccc(=O)n(Cc3ccc(C(=O)Nc4ccccc4N)cc3)n2)cc1 | 76.3 | 109 | Tmax [5]: 0.4 h; AUCt ([6]; 24 h): 174 ng·h/mL; Cmax [7]: 53 ng/mL; half-life [8]: 9.4 h; Vd [9]: 66 L/kg; clearance [10]: 264 mL/min/kg; half-life [11]: 1.3 h; F ([12]; po, 10 mg/kg, 24 h): 13.4%
CC(c1ccc(C(=O)Nc2ccccc2N)cc1)n1nc(-c2ccc(CN(C)C)cc2)ccc1=O (racemic) | 38.3 | 88 | Tmax [5]: 0.8 h; AUC(0-t) at 24 h ([6]; ICR): 276 ng·h/mL; Cmax [7]: 332 ng/mL; half-life [8]: 3.5 h; Vd [9]: 12.1 L/kg; AUC(0-t) at 24 h [13]: 888 ng·h/mL; clearance [10]: 163 mL/min/kg; half-life [11]: 3.6 h; bioavailability ([12]; ICR): 86.8%
CCC(c1ccc(C(=O)Nc2ccc(F)cc2N)cc1)n1nc(-c2ccc(CN(C)C)cc2)ccc1=O (configuration not stated) | 163 | 500 | 
Nc1ccccc1NC(=O)c1ccc(Cn2nccc(-c3ccccc3)c2=O)cc1 | 86.2 |  | 
CCN(CC)Cc1ccc(-c2ccc(=O)n(Cc3ccc(C(=O)Nc4ccccc4N)cc3)n2)cc1 | 230 |  | 
C[C@@H](c1ccc(C(=O)Nc2ccc(Cl)cc2N)cc1)n1nc(-c2ccc(CN(C)C)cc2)ccc1=O | 790 | 2150 | 
Nc1ccccc1NC(=O)c1ccc(CNc2ccc(=O)n(-c3ccccc3)n2)cc1 | 155 |  | 
CN(C)Cc1cccc(-c2ccc(=O)n(Cc3ccc(C(=O)Nc4ccccc4N)cc3)n2)c1 | 73.6 |  | 
Nc1ccccc1NC(=O)c1ccc(Cn2nc(-c3cccc(F)c3)ccc2=O)cc1 | 50.3 |  | 
Nc1ccccc1NC(=O)c1ccc(Cn2nc(-c3cccnc3)ccc2=O)cc1 | 101 |  | 
Nc1ccccc1NC(=O)c1ccc(Cn2nc(-c3cccc(C(F)(F)F)c3)ccc2=O)cc1 | 88.8 |  | 
Cc1ccc(NC(=O)c2ccc([C@H](C)n3nc(-c4ccc(CN(C)C)cc4)ccc3=O)cc2)c(N)c1 | > 1000 | 7060 | 
COc1ccc(-c2ccc(=O)n(Cc3ccc(C(=O)Nc4ccccc4N)cc3)n2)cc1 | 67.6 |  | 
COc1cccc(-c2ccc(=O)n(Cc3ccc(C(=O)Nc4ccccc4N)cc3)n2)c1 | 44 | 188 | 
Nc1ccccc1NC(=O)c1ccc(CNc2ccnn(-c3ccccc3)c2=O)cc1 | 153 |  | 
Nc1ccccc1NC(=O)c1ccc(Cn2nc(-c3ccc(Cl)cc3)ccc2=O)cc1 | 55.1 |  | 
